Laboratory results taken from patent EP2039702A2, “Prodrugs erbeta-selective substances, method for their production and pharmaceutical compounds containing these compositions” (Bayer Schering Pharma Aktiengesellschaft, priority 2005, dated 2007).

Biological target: humaner Carboanhydrase II (Homo sapiens, UniProt P00918)
Experiment: Carbonic anhydrase inhibition, photometric, nitrophenyl acetate conversion on microtitre plates
Format: biochemical
Details: humane Carboanhydrase II; read-out: CAII IC50
Description: Photometrische Bestimmung der Hemmung von humaner Carboanhydrase I oder II durch Sulfonamide oder Sulfamate auf Mikrotiterplatten mit Hilfe der enzymatischen Umwandlung von Nitrophenylacetat mit einem Farbumschlag von farblos nach gelb. Tabelle 1: IC50 Hemmwerte humaner Carboanhydrase I und II

C[C@]12CC[C@@H]3c4ccc(OS(N)(=O)=O)cc4CC[C@H]3[C@@H]1CC[C@@H]2O [Estradiol-3-sulfamat]
IC50: 21.6 ± 1.5 nM
